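How tested: cells in 96-well plates exposed to compound for 48 hours at five concentrations. At the TGI there is no net growth.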
How the values were obtained:
Assay in all cases: inhibition of tumour cell growth, NCI panel, 48 h
786-0 renal = test system: 786-0 renal
A498 renal = test system: A498 renal
A549 NSCLC = test system: A549 NSCLC
ACHN renal = test system: ACHN renal
BT-549 breast = test system: BT-549 breast
CAKI-1 renal = test system: CAKI-1 renal
CCRF-CEM leukemia = test system: CCRF-CEM leukemia
COLO 205 colon = test system: COLO 205 colon
DU-145 prostate = test system: DU-145 prostate
EKVX NSCLC = test system: EKVX NSCLC
HCC-2998 colon = test system: HCC-2998 colon
HCT-116 colon = test system: HCT-116 colon
HCT-15 colon = test system: HCT-15 colon
HL-60(TB) leukemia = test system: HL-60(TB) leukemia
HOP-62 NSCLC = test system: HOP-62 NSCLC
HOP-92 NSCLC = test system: HOP-92 NSCLC
HS 578T breast = test system: HS 578T breast
HT29 colon = test system: HT29 colon
IGROV1 ovarian = test system: IGROV1 ovarian
K-562 leukemia = test system: K-562 leukemia
KM12 colon = test system: KM12 colon
LOX IMVI melanoma = test system: LOX IMVI melanoma
M14 melanoma = test system: M14 melanoma
MALME-3M melanoma = test system: MALME-3M melanoma
MCF7 breast = test system: MCF7 breast
MDA-MB-231 breast = test system: MDA-MB-231 breast
MDA-MB-435 = test system: MDA-MB-435
MDA-N = test system: MDA-N
MOLT-4 leukemia = test system: MOLT-4 leukemia
NCI-H226 lung = test system: NCI-H226 lung
NCI-H23 lung = test system: NCI-H23 lung
NCI-H460 lung = test system: NCI-H460 lung
NCI-H522 lung = test system: NCI-H522 lung
NCI/ADR-RES ovarian = test system: NCI/ADR-RES ovarian
OVCAR-3 ovarian = test system: OVCAR-3 ovarian
OVCAR-4 ovarian = test system: OVCAR-4 ovarian
OVCAR-5 ovarian = test system: OVCAR-5 ovarian
OVCAR-8 ovarian = test system: OVCAR-8 ovarian
PC-3 prostate = test system: PC-3 prostate
RPMI-8226 leukemia = test system: RPMI-8226 leukemia
RXF 393 renal = test system: RXF 393 renal
SF-268 CNS = test system: SF-268 CNS
SF-295 CNS = test system: SF-295 CNS
SF-539 CNS = test system: SF-539 CNS
SK-MEL-2 melanoma = test system: SK-MEL-2 melanoma
SK-MEL-28 melanoma = test system: SK-MEL-28 melanoma
SK-MEL-5 melanoma = test system: SK-MEL-5 melanoma
SK-OV-3 ovarian = test system: SK-OV-3 ovarian
SN12C renal = test system: SN12C renal
SNB-19 CNS = test system: SNB-19 CNS
SNB-75 CNS = test system: SNB-75 CNS
SW-620 colon = test system: SW-620 colon
TK-10 renal = test system: TK-10 renal
U251 CNS = test system: U251 CNS
UACC-257 melanoma = test system: UACC-257 melanoma
UACC-62 melanoma = test system: UACC-62 melanoma
UO-31 renal = test system: UO-31 renal

Question: With `COc1c(OC(C)C)c(OC(C)C)c2oc(=O)n3c2c1C(c1ccccc1-n1c(C)ccc1C)C=C3` (configuration not stated) as the molecule, how does the TGI (786-0 renal) read?
Answer: > 100 µM

Question: And the TGI (A498 renal)?
Answer: > 100 µM

Question: What about the TGI (A549 NSCLC) of the same molecule?
Answer: > 100 µM

Question: And the TGI (ACHN renal)?
Answer: > 100 µM

Question: What about the TGI (BT-549 breast) of the same molecule?
Answer: > 100 µM

Question: And the TGI (CAKI-1 renal)?
Answer: > 100 µM

Question: And the TGI (CCRF-CEM leukemia)?
Answer: > 100 µM

Question: What about the TGI (COLO 205 colon) of the same molecule?
Answer: > 100 µM

Question: What about the TGI (DU-145 prostate) of the same molecule?
Answer: > 100 µM

Question: And the TGI (EKVX NSCLC)?
Answer: 95.4 µM

Question: And the TGI (HCC-2998 colon)?
Answer: > 100 µM

Question: And the TGI (HCT-116 colon)?
Answer: > 100 µM

Question: What about the TGI (HCT-15 colon) of the same molecule?
Answer: > 100 µM

Question: And the TGI (HL-60(TB) leukemia)?
Answer: > 100 µM

Question: What about the TGI (HOP-62 NSCLC) of the same molecule?
Answer: > 100 µM

Question: And the TGI (HOP-92 NSCLC)?
Answer: > 100 µM

Question: What about the TGI (HS 578T breast) of the same molecule?
Answer: > 100 µM

Question: And the TGI (HT29 colon)?
Answer: > 100 µM

Question: And the TGI (IGROV1 ovarian)?
Answer: > 100 µM

Question: What about the TGI (K-562 leukemia) of the same molecule?
Answer: > 100 µM

Question: And the TGI (KM12 colon)?
Answer: > 100 µM

Question: What about the TGI (LOX IMVI melanoma) of the same molecule?
Answer: 59 µM

Question: What about the TGI (M14 melanoma) of the same molecule?
Answer: > 100 µM

Question: What about the TGI (MALME-3M melanoma) of the same molecule?
Answer: 50 µM

Question: What about the TGI (MCF7 breast) of the same molecule?
Answer: > 100 µM

Question: What about the TGI (MDA-MB-231 breast) of the same molecule?
Answer: > 100 µM

Question: What about the TGI (MDA-MB-435) of the same molecule?
Answer: > 100 µM

Question: What about the TGI (MDA-N) of the same molecule?
Answer: > 100 µM

Question: What about the TGI (MOLT-4 leukemia) of the same molecule?
Answer: > 100 µM

Question: What about the TGI (NCI-H226 lung) of the same molecule?
Answer: 38.3 µM

Question: And the TGI (NCI-H23 lung)?
Answer: > 100 µM

Question: And the TGI (NCI-H460 lung)?
Answer: > 100 µM

Question: What about the TGI (NCI-H522 lung) of the same molecule?
Answer: > 100 µM

Question: And the TGI (NCI/ADR-RES ovarian)?
Answer: > 100 µM

Question: And the TGI (OVCAR-3 ovarian)?
Answer: > 100 µM

Question: And the TGI (OVCAR-4 ovarian)?
Answer: > 100 µM

Question: What about the TGI (OVCAR-5 ovarian) of the same molecule?
Answer: > 100 µM

Question: What about the TGI (OVCAR-8 ovarian) of the same molecule?
Answer: > 100 µM

Question: What about the TGI (PC-3 prostate) of the same molecule?
Answer: > 100 µM

Question: What about the TGI (RPMI-8226 leukemia) of the same molecule?
Answer: > 100 µM

Question: And the TGI (RXF 393 renal)?
Answer: 62.5 µM

Question: And the TGI (SF-268 CNS)?
Answer: > 100 µM

Question: And the TGI (SF-295 CNS)?
Answer: > 100 µM

Question: And the TGI (SF-539 CNS)?
Answer: > 100 µM

Question: What about the TGI (SK-MEL-2 melanoma) of the same molecule?
Answer: > 100 µM

Question: And the TGI (SK-MEL-28 melanoma)?
Answer: > 100 µM

Question: And the TGI (SK-MEL-5 melanoma)?
Answer: > 100 µM

Question: And the TGI (SK-OV-3 ovarian)?
Answer: > 100 µM

Question: What about the TGI (SN12C renal) of the same molecule?
Answer: > 100 µM

Question: What about the TGI (SNB-19 CNS) of the same molecule?
Answer: > 100 µM

Question: And the TGI (SNB-75 CNS)?
Answer: > 100 µM

Question: And the TGI (SW-620 colon)?
Answer: > 100 µM

Question: And the TGI (TK-10 renal)?
Answer: > 100 µM

Question: What about the TGI (U251 CNS) of the same molecule?
Answer: > 100 µM

Question: And the TGI (UACC-257 melanoma)?
Answer: > 100 µM

Question: What about the TGI (UACC-62 melanoma) of the same molecule?
Answer: > 100 µM

Question: What about the TGI (UO-31 renal) of the same molecule?
Answer: > 100 µM

Source: PubChem BioAssay (NCI)
